Experimental data as given in patent publication US20240352487A1, “MTOR -TARGETED MODIFICATION AND USES THEREOF” (UNIVERSITÉ LAVAL, priority 2021, published 2024).
“Also recorded” adds a separate entry of the source.

What was measured:
[1] = test system: metastatic anaplastic thyroid carcinoma; details: patient with metastatic anaplastic thyroid carcinoma; cited from earlier work
mTORC1 signaling = assay: mSc-TOSI mTORC1 signaling assay (FACS) in K562 cells; assay type: cell-based, human
Description: (A) Schematic representation of the mScarlet-I mTOR Signaling Indicator (mSc-TOSI) degradation under mTORC1 signaling. (B) mSc-TOSI fluorescence intensity in bulk populations of K562 cells stably expressing the mTORC1 signaling reporter. Where indicated, cells were treated with the indicated concentration of mTOR inhibitor for 24 hours before FACS analysis.
(A) Schematic representation of the mScarlet-I mTOR Signaling Indicator (mSc-TOSI) degradation under mTORC1 signaling. (B) mSc-TOSI fluorescence intensity in homozygous single cell-derived K562 clones harboring the MTOR-F2108L mutation with or without targeted CAR integration. Single cell-derived K562 clones were isolated in methylcellulose-based semi-solid RPMI media supplemented with 100 μM ouabain. Where indicated, cells were treated with the indicated concentration of mTOR inhibitor for 24 hours before FACS analysis.
Active mTORC1 signaling results in rapid phosphorylation of the mSc-TOSI phosphodegron by S6K, ubiquitination, and degradation by the proteasome while its inhibition stabilizes the reporter.
The percentage of fluorescent cells was quantified using a BD LSRII flow cytometer and 1×10^5 cells were analyzed for each condition. […] For mTORC1 signaling assays, cells were treated with the indicated concentration of rapamycin or AZD8055 for 24 hours before analysis. FACS sorting was performed using a BD FACS Aria Fusion flow cytometer for the saturation prime editing experiment and 5×10^5 cells were sorted for each condition. Flow cytometric data visualization and analysis were performed using FlowJo™ software (Tree Star).
We then adapted a fluorescent mTORC1 signaling indicator^34 (mSc-TOSI) to assess the impact of rapamycin on mTORC1 signaling after targeted transgene integration to the MTOR locus. Active mTORC1 signaling results in rapid phosphorylation of the mSc-TOSI phosphodegron by S6K, ubiquitination, and degradation by the proteasome while its inhibition stabilizes the reporter^34 (FIG. 5A). We treated bulk populations of cells harboring the MTOR-F2108L mutation with or without targeted therapeutic transgene integration at the MTOR locus with different concentrations of rapamycin and AZD8055, a second-generation mTOR inhibitor.

MTOR locus [2] = assay: Transgene knock-in at MTOR in K562 cells, FACS quantification; assay type: cell-based, human; details: Rapamycin-treated K562 cells, FACS with antibody staining
Description: (A) Strategy for the CRISPR-driven CAR-2A-EGFP gene knock-in to the MTOR locus using a plasmid donor. (B) K562 cells were transfected with 0.5 μg of SpCas9-sgRNA-expressing plasmid and 1 μg of donor plasmid. Cells were treated with 0.5 μM rapamycin 3 days post-transfection until all non-resistant cells were eliminated. The percentage of cells expressing the EGFP reporter was quantified by FACS after selection. HA; homology arm. PA; polyadenylation signal. EGFP; enhanced green fluorescent protein. 2A self-cleaving peptide.
(A) Strategy for the CRISPR-driven RQR8 gene knock-in to the MTOR locus using a plasmid donor. (B) K562 cells were transfected with 0.5 μg of SpCas9-sgRNA-expressing plasmid and 1 μg of donor plasmid harboring. […] The percentage of cells expressing the RQR8 epitope marker was quantified by FACS after selection using an Alexa Fluor 488-conjugated anti-human CD34 antibody. […] (D) Same as in B, but the percentage of cells expressing CD52 was quantified using a FITC-conjugated anti-human CD52 antibody. […]
The percentage of fluorescent cells was quantified using a BD LSRII flow cytometer and 1×10^5 cells were analyzed for each condition. […] Anti-human CD34 Alexa Fluor 488-conjugated antibody clone QBEnd10 (R and D systems Cat FAB7227G) and anti-human CD52 FITC-conjugated antibody clone HI186 were used for RQR8 and CD52 quantification, respectively. […]

K562 cells = assay: K562 cell growth in the presence of rapamycin; assay type: cell-based, human
Description: (A) Prime editing and small indels quantification at MTOR as determined by BEAT and TIDE analysis from Sanger sequencing. K562 cells stably expressing the mSc-TOSI reporter were transfected with 0.75 μg of pCMV-PEmax vector, 0.25 μg of epegRNA (tevopreQ1) vector, and 0.1 μg of nick sgRNA vector. Genomic DNA was harvested 3 days post-transfection (before selection) and cells were treated (rapamycin) or not (vehicle) with 0.5 μM rapamycin until all non-resistant cells were eliminated.
K562 cells were obtained from the ATCC (CCL-243) and NALM6 cells stably transduced to express a FLUC-T2A-RFP-IRES-Puro reporter gene cassette (Biosettia). K562 and NALM6 cells were maintained at 37° C. under 5% CO2 in RPMI medium supplemented with 10% FBS, penicillin-streptomycin, and GlutaMAX. Cells were routinely tested for the absence of mycoplasma contamination. Rapamycin (Cayman Chemicals, Cat 53123-88-9) was dissolved at 10 mg/mL in DMSO, working dilutions were prepared in water and stored at −20° C. AZD8055 ([…] Technologies) was dissolved at 10 mM in DMSO, working dilutions were prepared in water and stored at −20° C. DMSO alone was diluted in water and used as vehicle control. Ouabain octahydrate (Sigma) was dissolved at […] in hot water, working dilutions were prepared in water and stored at −20° C. K562 cells (2×10^5 cells/transfection) were transfected using a Lonza 4D Nucleofector™ with a SF nucleofection kit (Lonza) following manufacturer's recommendations with the indicated DNA concentrations. Cells were treated with the indicated concentration of rapamycin 3 days post-nucleofection until all non-resistant cells were eliminated. For the isolation of single cell-derived clones, simultaneous coselection and cloning was performed in methylcellulose-based semi-solid RPMI medium supplemented with 100 μM ouabain for 10 days.
We then designed epegRNAs to validate the new MTOR-F2108 mutations individually. […] These observations confirmed that the five new mutations identified by saturation prime editing conferred resistance to rapamycin.

MTOR locus [3] = assay: F2108L edited alleles in CD3+ T cells after rapamycin selection, TIDER; assay type: cell-based, human; details: 2 μg dsDNA donor, after rapamycin selection 15 days
Description: (A) Strategy for the CRISPR-driven insertion of the F2108L mutation to the MTOR locus using a linear double-stranded DNA (dsDNA) donor. (B) Schematic representation of the SpCas9 target site and the dsDNA donor sequence harboring the F2108L and PAM mutations (WT sequence: 5′ portion corresponds to SEQ ID NO: 45 and 3′ portion corresponds to SEQ ID NO: 46; G49 donor: 5′ portion corresponds to SEQ ID NO: 47 and 3′ portion corresponds to SEQ ID NO: 48). […] The percentage of edited alleles was quantified by TIDER after selection.
Receptor dimerization is induced with rapamycin. […] HA, homology arm. PA, polyadenylation signal. EGFP, enhanced green fluorescent protein. 2A self-cleaving peptide.
dsDNA donors were produced as described previously^24. The donor sequences were cloned into a cloning vector and PCR amplification (25 cycles) was performed using Kapa-HiFi polymerase. DNA purification was performed by solid-phase reversible immobilization using AMPure XP (Beckman Coulter) magnetic beads. […]
Genomic DNA was extracted with QuickExtract DNA extraction solution (EpiCentre) following manufacturer's recommendations. […] Sanger sequencing was performed on PCR amplicons to quantify the percentage of edited alleles using TIDE and TIDER^28,29. […]

MTOR locus [4] = assay: Transgene knock-in at MTOR in CD3+ T cells, FACS quantification; assay type: cell-based, human
Description: (A) Strategy for CRISPR-driven mScarlet-I gene knock-in to the MTOR locus using a linear double-stranded DNA (dsDNA) donor. […] The percentage of cells expressing the mScarlet-I reporter was quantified by FACS after selection. HA, homology arm. PA, polyadenylation signal. EGFP, enhanced green fluorescent protein. 2A self-cleaving peptide.
(A) Strategy for the CRISPR-driven CAR-2A-EGFP gene knock-in to the MTOR locus using a linear double-stranded DNA (dsDNA) donor. […] The percentage of cells expressing the EGFP reporter was quantified by FACS after selection. HA; homology arm. PA; polyadenylation signal. EGFP; enhanced green fluorescent protein. 2A self-cleaving peptide.
The percentage of cells expressing the EGFP reporter was quantified by FACS after selection. HA, homology arm. PA, polyadenylation signal. EGFP, enhanced green fluorescent protein. 2A self-cleaving peptide.
dsDNA donors were produced as described previously^24. The donor sequences were cloned into a cloning vector and PCR amplification (25 cycles) was performed using Kapa-HiFi polymerase. DNA purification was performed by solid-phase reversible immobilization using AMPure XP (Beckman Coulter) magnetic beads. For ribonucleoprotein complex (RNP) formulation, 100 pmols of sgRNAs (IDT) were mixed with 0.8 μL of 100 mg/mL polyglutamic acid (Sigma) and 50 pmols of SpCas9 nuclease (IDT), as previously described^27. The RNP mix was incubated at 37° C. for 10 minutes and the dsDNA donors were added to the mix and incubated at room temperature for 5 minutes before transfection. Primary CD3^+ T cells (1×10^6 cells/transfection) were transfected using a Lonza 4D Nucleofector™ with a P3 nucleofection kit (Lonza) following manufacturer's recommendations with the indicated DNA concentrations. CD3+ T cells were resuspended in 80 μL media without IL-2 directly after nucleofection and incubated at 37° C. for 15 minutes before transfer into culture media plates. For AAV6 transduction, CD3+ T cells were resuspended in 80 μL media directly after nucleofection and AAV6 vectors were added. Cells were incubated at 37° C. for 8 hours at high cell density before transfer into culture media plates.
The percentage of fluorescent cells was quantified using a BD LSRII flow cytometer and 1×10^5 cells were analyzed for each condition. For antibody staining, K562 cells were incubated with Fc receptor block (eBioscience Cat 16-9161-73) for 20 minutes on ice with PBS and 3% human serum (Sigma). Anti-human CD34 Alexa Fluor 488-conjugated antibody clone QBEnd10 (R and D systems Cat FAB7227G) and anti-human CD52 FITC-conjugated antibody clone HI186 were used for RQR8 and CD52 quantification, respectively. For mTORC1 signaling assays, cells were treated with the indicated concentration of rapamycin or AZD8055 for 24 hours before analysis. […]

In the case of `CO[C@H]1C[C@@H]2CC[C@@H](C)[C@@](O)(O2)C(=O)C(=O)N2CCCC[C@H]2C(=O)O[C@H]([C@H](C)C[C@@H]2CC[C@@H](OCCO)[C@H](OC)C2)CC(=O)[C@H](C)/C=C(\C)[C@@H](O)[C@@H](OC)C(=O)[C@H](C)C[C@H](C)/C=C/C=C/C=C/1C` [everolimus], the “response duration before relapse” value [1] is given as 18 month.
For `COc1ccc(-c2ccc3c(N4CCOC[C@@H]4C)nc(N4CCOC[C@@H]4C)nc3n2)cc1CO` [AZD8055], the “sensitivity of mTORC1 signaling to inhibitor” value (mTORC1 signaling; CRISPR-engineered K562 cells harboring MTOR-F2108L, 24 hours) was “remained sensitive”.
In the case of “RQR8: 136-amino-acid epitope-based marker/suicide gene targeted to MTOR with plasmid donor (SEQ ID NO: 26)”, the transgene expression (MTOR locus [2]) is reported as “higher transgene expression”.
In the case of `CO[C@H]1C[C@@H]2CC[C@@H](C)[C@@](O)(O2)C(=O)C(=O)N2CCCC[C@H]2C(=O)O[C@H]([C@H](C)C[C@@H]2CC[C@@H](O)[C@H](OC)C2)CC(=O)[C@H](C)/C=C(\C)[C@@H](O)[C@@H](OC)C(=O)[C@H](C)C[C@H](C)/C=C/C=C/C=C/1C` [rapamycin, Rapamycin], the mTORC1 signaling (mTORC1 signaling; K562 cells after prime editing (F2108L) and selection, different concentrations of rapamycin) is reported as “remained functional”, the mTORC1 signaling (mTORC1 signaling; K562 with F2108L mutation) is reported as “complete rapamycin resistance” and the mTORC1 signaling (mTORC1 signaling; K562 with F2108V and F2108K) is reported as “low levels of signaling”. The mTORC1 signaling (mTORC1 signaling; K562 with F21081, F2108M, and F2108G) was “intermediate levels of signaling”, the mTORC1 signaling (mTORC1 signaling; K562 without epegRNA (pUC19) and with silent F2108F mutation) was “complete mTORC1 signaling inhibition” and the mTORC1 signaling (mTORC1 signaling; MTOR-F2108L homozygous K562 clones with or without CAR integration, rapamycin treatment) was “remained completely functional”. For the same compound, the mTORC1 signaling (mTORC1 signaling; adenine base edited K562 cells, in the presence of rapamycin) was “very low levels of mTORC1 signaling”, the mTORC1 signaling (mTORC1 signaling; bulk K562 cells harboring MTOR-F2108L with or without transgene integration, 50 nM to 5 000 nM rapamycin, 24 hours) was “functional mTORC1 signaling; also recorded: slight mTORC1 signaling decrease” and the “resistance of cells to rapamycin” value (K562 cells; ABE8e-targeted K562 cells) was “partial resistance”. For the same compound, the cell growth (K562 cells; K562 cells harboring MTOR-F2108 substitutions, 0.5 μM rapamycin) was “grew robustly” and the “resistance of cells to rapamycin” value (K562 cells; K562 cells with silent F2108F mutation, 0.5 μM rapamycin) was “no resistance”.
In the case of “G49: gRNA, MTOR-Intron 45, target AGGTAGGATCTTCAGGCTCC (SEQ ID NO: 6); used as SpCas9 RNP with donor (listed as DNA, chemistry not given here; listed as Homo sapiens)”, the “alleles harboring the F2108L mutation” value (MTOR locus [3]) is reported as “up to 63%”, the “alleles harboring the PAM mutation” value (MTOR locus [3]) is reported as at most 69% and the “percentage of CD3+ T cells expressing the mScarlet-I reporter” value (from here on “percentage”) (MTOR locus [4]; 1 μg dsDNA donor, after rapamycin selection 8 days) is reported as 21%. For the same compound, the “percentage” value (MTOR locus [4]; 1 μg dsDNA donor, without selection) was 11%, the “percentage” value (MTOR locus [4]; 2 μg dsDNA donor, after rapamycin selection 8 days) was 31% and the “percentage” value (MTOR locus [4]; 2 μg dsDNA donor, without selection) was 18%.
